Assay results reported in paper PMC9365693 (Nature, 2022).
pKd: −log10 of the molar value. Read-outs that look alike come from different tables or passages of the source.

Columns and labels:
[1] = for interaction with lipid II moieties (in words): ssNMR, DOPC liposomes with 4 mol% lysine-lipid II, pH 7.2
Experimental: Multi-lamellar vesicles of DOPC doped with 4 mol% lysine-lipid II in buffer (40 mM Na2PO4 and 25 mM NaCl, pH 7.2) were collected by centrifugation (60,000g) and loaded into ssNMR rotors. […] For 1.3-mm rotors, samples contained 200 nmol of antibiotic for unlabelled lipid II.
^1H-detected ssNMR experiments were performed at 60 kHz magic angle spinning (MAS) using magnetic fields of 700 and 950 MHz (^1H frequency). […] T1rho trajectories were fit to single exponentials. 2D CC experiments were acquired with PARISxy[33],[53] recoupling (m = 1) at 950 MHz magnetic field and 18 kHz MAS. A 2D CαN experiment was acquired at 700 MHz, 12 kHz MAS and 5 ms N to C cross-polarization transfer time. […] The scalar TOBSY[35] experiment was acquired at 700 MHz using 8 kHz MAS with 6 ms CC mixing time. The mobility edited H(H)C experiment[25] was measured at 700 MHz with 16.5 kHz MAS at a temperature of 300 K using a T2 relaxation filter of 2.5 ms. 1D MAS ^31P experiments were acquired at 500 MHz magnetic field and 12 kHz MAS. 2D HP experiments were acquired at 800 MHz and 60 kHz MAS using 1 and 2 ms ^1H to ^31P cross-polarization contact time. Static ^31P ssNMR experiments were acquired at 500 MHz magnetic field without sample spinning.

[2] = tested on: Gram-positive pathogens; details: cited from earlier work
Experimental: Antibiotics that use novel mechanisms are needed to combat antimicrobial resistance[1]–[3]. […] Here we unravel the mechanism of teixobactin at the atomic level using a combination of solid-state NMR, microscopy, in vivo assays and molecular dynamics simulations. […] (Fig. 4h and Extended Data Fig. 10b,c).

[3] = Isothermal titration calorimetry (ITC), lipid II-containing LUVs titrated into drug; assay type: binding; set-up: dG / dH / -TdS: unit not given here
Experimental: Isothermal titration calorimetry
For isothermal titration calorimetry (ITC) measurements large unilamellar vesicles (LUVs) containing lysine-lipid II were prepared by incorporating 2 mol% of lysine-lipid II in DOPC from the stock solution. The lipids were dried under a nitrogen stream and hydrated with buffer (20 mM HEPES and 50 mM NaCl, pH 7) to a lipid-phosphate concentration of 20 mM. Finally, unilamellar vesicles were obtained after ten rounds of extrusion through 200-nm membrane filters (Whatman Nuclepore, Track-Etch Membranes). ITC experiments were performed with the Affinity ITC (TA Instruments-Waters LLC) to determine interaction between LUVs and teixobactin. […] The samples were degassed before use. […] The number of injections was 23. Experiments were performed at 37 °C and analysed using the Nano Analyze Software (TA instruments-Water LLC). All experiments were performed in triplicates. Control experiments were performed with lipid II-free DOPC LUVs. The independent model was used to determine the interaction between teixobactin and lipid II. ITC data of R4L10-teixobactin were previously published.

[4] = Scalar TOBSY ssNMR: mobility of the lipid II pentapeptide in the complex; assay type: binding; details: 8 kHz MAS, 300 K, compared with R4L10-teixobactin
Source text: T1rho trajectories were fit to single exponentials.
Interfacial contacts are labelled in green. Lipid II pentapeptide signals are marked with an asterisk, e.g., A1*αβ. b) Zoom into the spectrum acquired with 300 ms magnetization transfer. […] The spectrum is based on a scalar 2D ^13C^13C TOBSY[35] ssNMR experiment with the complex formed by ^13C,^15N-teixobactin and ^13C,^15N-Lipid II in liposomes acquired at 950 MHz, 8 kHz MAS, and 300 K temperature. Teixobactin and the Lipid II sugars are not visible in the spectrum (cyan). Conversely, the last three residues (Lys3-Ala4-Ala5) of the Lipid II pentapeptide give scalar signals indicating high mobility and no involvement in complex formation. […] Likewise, the K3αγ signal of the third pentapeptide residue was only visible for R4L10-teixobactin. […] All experiments were performed in triplicates. All the parameter values are shown as mean +/− SD.

[5] = Static 31P ssNMR: membrane perturbation; details: lipid II-doped DOPC large unilamellar vesicles
[6] = source data Figure 3e, ITC, Avg of Expt 1-3
[7] = source data Figure 3e, ITC, Expt 1
[8] = source data Figure 3e, ITC, Expt 2
[9] = source data Figure 3e, ITC, Expt 3

For teixobactin, the “number of interfacial End10–MurNAc ssNMR contacts” value ([1]; 2D 13C13C PARISxy, 13C,15N-teixobactin and 13C,15N-lipid II in DOPC liposomes) was 11, the “interaction with lipid II moieties (in words)” value ([1]; listed as Teixobactin) was “did not bind to the pentapeptide of lipid II” and the “interaction with lipid II moieties (in words)” value ([1]; listed as natural teixobactin) was “tight and specific interactions”. The “antibacterial activity (in words)” value ([2]; MRSA, S. pneumoniae, vancomycin-resistant Enterococci) was “broad activity against multidrug-resistant Gram-positive pathogens”, the “bacterial killing compared with vancomycin (in words)” value [2] was “more effective in killing bacteria than vancomycin” and the “resistance (in words)” value [2] was “lack of resistance”. The pKd ([3]; ITC, DOPC LUVs with 2 mol% lysine-lipid II, 20 mM HEPES 50 mM NaCl pH 7, 30 μM drug, 37 °C, mean of three experiments, b18 prints ± 0.008) was 7.10, the pKd ([3]; source data Figure 3e, ITC pH 7, 37 °C, Expt 1) was 7.17 and the pKd ([3]; source data Figure 3e, ITC pH 7, 37 °C, Expt 2) was 7.04. For the same substance, the pKd ([3]; source data Figure 3e, ITC pH 7, 37 °C, Expt 3) was 7.16, the dG [3, 6] was -42.29 and the dH [3, 6] was -35.03. It also gave a dG [3, 7] of -42.58, a dH [3, 7] of -34.03 and a dG [3, 8] of -41.78. The dH [3, 8] was -37.92, the dG [3, 9] was -42.52 and the dH [3, 9] was -33.14. For the same substance, the “-TdS” value ([3]; source data Figure 3e, ITC, Plot, avg) was -7.26, the “rigidity of lipid II pentapeptide in the complex (in words)” value [4] was “the pentapeptide is more rigid in the complex with teixobactin than with R4L10-teixobactin” and the “membrane perturbation by static 31P ssNMR (in words)” value [5] was “incubation with teixobactin markedly changed the signal”.
